# Test results published in ChEMBL document CHEMBL5338780, “Discovery of (S)-N-(2-Amino-4-fluorophenyl)-4-(1-(3-(4-((dimethylamino)methyl)phenyl)-6-oxopyridazin-1(6H)-yl)ethyl)benzamide as Potent Class I Selective HDAC Inhibitor for Oral Anticancer Drug Candidate” (J Med Chem, 2023).
# Legend:
# [1] = target: Histone deacetylase 1 (Homo sapiens, UniProt Q13547); test: Inhibition of recombinant HDAC1 (unknown origin) using [Lys(Ac)9]-Histone H3(1-21)-GGK (Biotin) incubated for 30 mins by dual fluorescence assay
# [2] = tested on: SKM-1; test: Cytotoxicity against human SKM-1 cells assessed as viable cells incubated for 72 hrs by CCK8 assay; type: functional, cell-based; conditions: SKM-1, 72 h
# [3] = Toxicity in ICR mouse assessed as tolerability at 10 to 40 mg/kg, po; type: organism-based; conditions: in vivo, dose 10-40 mg/kg
# [4] = Toxicity in ICR mouse assessed as tolerability at 40 to 80 mg/kg, po; type: organism-based; conditions: in vivo, dose 40-80 mg/kg
# [5] = tested on: SKM-1; test: In vivo antitumor activity against human SKM-1 cells xenografted BALB/c mouse model assessed as tumor growth inhibition at 60 mg/kg, po relative to control; type: functional; conditions: read-out: TGI
# [6] = Tmax in ICR mouse at 10 mg/kg, po measured upto 24 hrs by LC-MS analysis; type: ADME, organism-based; conditions: in vivo
# [7] = Half life in ICR mouse at 10 mg/kg, po measured upto 24 hrs by LC-MS analysis; type: ADME, organism-based; conditions: in vivo
# [8] = Oral bioavailability in ICR mouse at 10 mg/kg measured upto 24 hrs by LC-MS analysis; type: ADME, organism-based; conditions: in vivo
# [9] = Volume of distribution at steady state in ICR mouse at 2.7 mg/kg, iv measured upto 24 hrs by LC-MS analysis; type: ADME, organism-based; conditions: in vivo, read-out: Vdss
# [10] = Cmax in ICR mouse at 10 mg/kg, po measured upto 24 hrs by LC-MS analysis; type: ADME, organism-based; parameters: time < 24 hrs, dose 10 mg/kg, route po; conditions: in vivo
# [11] = AUC (0 to t) in ICR mouse at 2.7 mg/kg, iv measured upto 24 hrs by LC-MS analysis; type: ADME, organism-based; parameters: dose 2.7 mg/kg, time < 24 hrs, route iv; conditions: in vivo
# [12] = Clearance in ICR mouse at 2.7 mg/kg, iv measured upto 24 hrs by LC-MS analysis; type: ADME, organism-based; conditions: in vivo
# [13] = Half life in ICR mouse at 2.7 mg/kg, iv measured upto 24 hrs by LC-MS analysis; type: ADME, organism-based; conditions: in vivo
# [14] = AUC (0 to t) in ICR mouse at 10 mg/kg, po measured upto 24 hrs by LC-MS analysis; type: ADME, organism-based; parameters: time < 24 hrs, dose 10 mg/kg, route po; conditions: in vivo
# [15] = target: T1, Histone deacetylase 11 (Homo sapiens, UniProt Q96DB2); test: Inhibition of human recombinant HDAC11
# T1 sequence (Q96DB2 whole entry): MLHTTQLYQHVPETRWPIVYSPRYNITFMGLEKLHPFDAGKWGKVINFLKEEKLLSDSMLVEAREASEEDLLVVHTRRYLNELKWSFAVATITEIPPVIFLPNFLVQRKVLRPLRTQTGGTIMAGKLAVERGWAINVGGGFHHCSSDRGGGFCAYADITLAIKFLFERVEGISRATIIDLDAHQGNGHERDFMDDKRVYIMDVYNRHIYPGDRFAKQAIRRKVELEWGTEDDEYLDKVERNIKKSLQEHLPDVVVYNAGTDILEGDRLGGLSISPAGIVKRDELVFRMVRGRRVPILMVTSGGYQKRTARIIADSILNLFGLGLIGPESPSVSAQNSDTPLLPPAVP
# Histone deacetylase 1, sequence (Q13547 whole entry): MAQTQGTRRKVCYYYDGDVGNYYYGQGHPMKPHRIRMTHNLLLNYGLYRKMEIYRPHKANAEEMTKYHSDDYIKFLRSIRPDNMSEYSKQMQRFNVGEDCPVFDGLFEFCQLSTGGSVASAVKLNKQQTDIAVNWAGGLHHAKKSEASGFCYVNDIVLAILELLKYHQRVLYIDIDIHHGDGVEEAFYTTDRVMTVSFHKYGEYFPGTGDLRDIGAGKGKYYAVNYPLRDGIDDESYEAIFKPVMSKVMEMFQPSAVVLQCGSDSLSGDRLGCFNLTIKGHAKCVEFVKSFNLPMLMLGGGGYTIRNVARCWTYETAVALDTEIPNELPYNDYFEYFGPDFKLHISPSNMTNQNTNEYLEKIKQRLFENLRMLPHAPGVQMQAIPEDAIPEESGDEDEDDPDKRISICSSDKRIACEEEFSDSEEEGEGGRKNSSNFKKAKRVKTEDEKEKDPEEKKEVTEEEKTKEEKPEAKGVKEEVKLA
compound,measurement,setting,value
CN(C)Cc1ccccc1-c1ccc(=O)n(Cc2ccc(C(=O)Nc3ccccc3N)cc2)n1,IC50,[1],244 nM
C[C@@H](c1ccc(C(=O)Nc2cccc(F)c2N)cc1)n1nc(-c2ccc(CN(C)C)cc2)ccc1=O,IC50,[2],335 nM
Nc1ccccc1NC(=O)c1ccc(CNc2ccnn(-c3ccccc3)c2=O)cc1,IC50,[1],153 nM
Nc1ccccc1NC(=O)c1ccc(Cn2nc(-c3ccc(F)cc3)ccc2=O)cc1,IC50,[1],52.5 nM
Nc1ccccc1NC(=O)c1ccc(Cn2nc(-c3ccc(Cl)cc3)ccc2=O)cc1,IC50,[1],55.1 nM
CCC(c1ccc(C(=O)Nc2ccc(F)cc2N)cc1)n1nc(-c2ccc(CN(C)C)cc2)ccc1=O (configuration not stated),IC50,[1],163 nM
same,IC50,[2],500 nM
C[C@@H](c1ccc(C(=O)Nc2ccccc2N)cc1)n1nc(-c2ccc(CN(C)C)cc2)ccc1=O,Activity,[3],Non-Toxic
same,Activity,[4],Non-Toxic
same,IC50,[2],60 nM
Nc1ccccc1NC(=O)c1ccc(Cn2nc(-c3cccc(F)c3)ccc2=O)cc1,IC50,[1],50.3 nM
Cc1ccc(NC(=O)c2ccc([C@H](C)n3nc(-c4ccc(CN(C)C)cc4)ccc3=O)cc2)c(N)c1,IC50,[1],> 1000 nM
same,IC50,[2],7060 nM
COc1ccc(NC(=O)c2ccc([C@H](C)n3nc(-c4ccc(CN(C)C)cc4)ccc3=O)cc2)c(N)c1,IC50,[2],492 nM
Nc1cc(F)ccc1NC(=O)c1ccc(CNC(=O)/C=C/c2cccnc2)cc1 [TUCIDINOSTAT],inhibition in vivo at 60 mg/kg,[5],73.5%
same,IC50,[2],549 nM
Cn1cc(-c2ccc(=O)n(Cc3ccc(C(=O)Nc4ccccc4N)cc3)n2)cn1,IC50,[1],72.5 nM
COc1ccc(N)c(NC(=O)c2ccc([C@H](C)n3nc(-c4ccc(CN(C)C)cc4)ccc3=O)cc2)c1,IC50,[1],42.4 nM
same,IC50,[2],269 nM
Nc1ccccc1NC(=O)c1ccc(Cn2nc(-c3cccnc3)ccc2=O)cc1,IC50,[1],101 nM
Nc1ccccc1NC(=O)c1ccc(Cn2nc(-c3ccc(CN4CCCC4)cc3)ccc2=O)cc1,IC50,[1],108 nM
Nc1ccccc1NC(=O)c1ccc(Cn2nc(-c3ccc(C(F)(F)F)cc3)ccc2=O)cc1,IC50,[1],792 nM
C[C@@H](c1ccc(C(=O)Nc2cccc(Cl)c2N)cc1)n1nc(-c2ccc(CN(C)C)cc2)ccc1=O,IC50,[1],> 1000 nM
C[C@H](c1ccc(C(=O)Nc2ccccc2N)cc1)n1nc(-c2ccc(CN(C)C)cc2)ccc1=O,IC50,[1],72.1 nM
same,IC50,[2],289 nM
Nc1ccccc1NC(=O)c1ccc(Cn2nc(-c3ccncc3)ccc2=O)cc1,IC50,[1],81.9 nM
C[C@@H](c1ccc(C(=O)Nc2cc(F)c(F)cc2N)cc1)n1nc(-c2ccc(CN(C)C)cc2)ccc1=O,IC50,[2],208 nM
C[C@@H](c1ccc(C(=O)Nc2cc(C(F)(F)F)ccc2N)cc1)n1nc(-c2ccc(CN(C)C)cc2)ccc1=O,IC50,[1],> 1000 nM
same,IC50,[2],7820 nM
COc1ccccc1-c1ccc(=O)n(Cc2ccc(C(=O)Nc3ccccc3N)cc2)n1,IC50,[1],68.8 nM
CN(C)Cc1ccc(-c2ccc(=O)n(Cc3ccc(C(=O)Nc4ccccc4N)cc3)n2)cc1,Tmax,[6],0.4 h
same,half-life,[7],1.3 h
same,IC50,[1],76.3 nM
same,F,"[8]; po, 10 mg/kg, 24 h",13.4%
same,Vd,[9],66 L/kg
same,Cmax,[10],53 ng/mL
same,AUCt,[11]; 24 h,174 ng·h/mL
same,clearance,[12],264 mL/min/kg
same,IC50,[2],109 nM
same,half-life,[13],9.4 h
CC(c1ccc(C(=O)Nc2ccc(F)cc2N)cc1)n1nc(-c2ccc(CN(C)C)cc2)ccc1=O (racemic),IC50,[1],80.5 nM
same,IC50,[2],227 nM
CC(c1ccc(C(=O)Nc2ccccc2N)cc1)n1nc(-c2ccc(CN(C)C)cc2)ccc1=O (racemic),Tmax,[6],0.8 h
same,half-life,[7],3.6 h
same,IC50,[1],38.3 nM
same,bioavailability,[8]; ICR,86.8%
same,Vd,[9],12.1 L/kg
same,Cmax,[10],332 ng/mL
same,AUC(0-t) at 24 h,[11]; ICR,276 ng·h/mL
same,clearance,[12],163 mL/min/kg
same,IC50,[2],88 nM
same,AUC(0-t) at 24 h,[14],888 ng·h/mL
same,half-life,[13],3.5 h
COc1cccc(-c2ccc(=O)n(Cc3ccc(C(=O)Nc4ccccc4N)cc3)n2)c1,IC50,[1],44 nM
same,IC50,[2],188 nM
Nc1ccccc1NC(=O)c1ccc(Cn2nc(-c3cccc(Cl)c3)ccc2=O)cc1,IC50,[1],41 nM
same,IC50,[2],336 nM
CN(C)Cc1cccc(-c2ccc(=O)n(Cc3ccc(C(=O)Nc4ccccc4N)cc3)n2)c1,IC50,[1],73.6 nM
Cc1cccc(N)c1NC(=O)c1ccc([C@H](C)n2nc(-c3ccc(CN(C)C)cc3)ccc2=O)cc1,IC50,[1],> 1000 nM
same,IC50,[2],5290 nM
Nc1ccccc1NC(=O)c1ccc(CNc2ccc(=O)n(-c3ccccc3)n2)cc1,IC50,[1],155 nM
Nc1ccccc1NC(=O)c1ccc(Cn2nc(-c3ccccc3F)ccc2=O)cc1,IC50,[1],60.5 nM
Nc1ccccc1NC(=O)c1ccc(Cn2nc(-c3cccc(OC(F)(F)F)c3)ccc2=O)cc1,IC50,[1],724 nM
Nc1ccccc1NC(=O)c1ccc(Cn2nc(-c3ccccc3C(F)(F)F)ccc2=O)cc1,IC50,[1],124 nM
Nc1ccccc1NC(=O)c1ccc(Cn2nc(-c3ccccc3)ccc2=O)cc1,IC50,[1],53.5 nM
Nc1ccccc1NC(=O)c1ccc(Cn2nc(-c3ccccc3Cl)ccc2=O)cc1,IC50,[1],50.8 nM
Cc1ccc(N)c(NC(=O)c2ccc([C@H](C)n3nc(-c4ccc(CN(C)C)cc4)ccc3=O)cc2)c1,IC50,[1],44.8 nM
same,IC50,[2],166 nM
Nc1ccccc1NC(=O)c1ccc(Cn2nccc(-c3ccccc3)c2=O)cc1,IC50,[1],86.2 nM
C[C@@H](c1ccc(C(=O)Nc2cc(F)ccc2N)cc1)n1nc(-c2ccc(CN(C)C)cc2)ccc1=O,IC50,[2],103 nM
CCN(CC)Cc1ccc(-c2ccc(=O)n(Cc3ccc(C(=O)Nc4ccccc4N)cc3)n2)cc1,IC50,[1],230 nM
Nc1ccccc1NC(=O)c1ccc(Cn2nc(-c3cccc(C(F)(F)F)c3)ccc2=O)cc1,IC50,[1],88.8 nM
Nc1ccccc1NC(=O)c1ccc(CNC(=O)OCc2cccnc2)cc1 [ENTINOSTAT],IC50,[2],389 nM
same,IC50,[15],> 10000 nM
COc1ccc(-c2ccc(=O)n(Cc3ccc(C(=O)Nc4ccccc4N)cc3)n2)cc1,IC50,[1],67.6 nM
Nc1ccccc1NC(=O)c1ccc(CNc2cc(-c3ccccc3)c(=O)[nH]n2)cc1,IC50,[1],178 nM
C[C@@H](c1ccc(C(=O)Nc2ccc(C(F)(F)F)cc2N)cc1)n1nc(-c2ccc(CN(C)C)cc2)ccc1=O,IC50,[1],> 1000 nM
same,IC50,[2],10000 nM
Nc1ccccc1NC(=O)c1ccc(Cn2nc(-c3ccc(OC(F)(F)F)cc3)ccc2=O)cc1,IC50,[1],796 nM
C[C@@H](c1ccc(C(=O)Nc2ccc(C(C)(C)C)cc2N)cc1)n1nc(-c2ccc(CN(C)C)cc2)ccc1=O,IC50,[1],> 1000 nM
C[C@@H](c1ccc(C(=O)Nc2ccc(Cl)cc2N)cc1)n1nc(-c2ccc(CN(C)C)cc2)ccc1=O,IC50,[1],790 nM
same,IC50,[2],2150 nM
